In one assay the test system is Aged rats. The assay is described as follows: Novel Object Recognition Test (NORT) in aged rats. Format: in vivo, male Wistar rats. As to conditions: 27 days after single 20 ng/animal i.c.v. How it is done: Aged rats (male Wistar rats, 18-20 months old) were divided into four groups: two vehicle-treated (groups 1 and 3) and two G-2-AllylP treated (groups 2 and 4) (all groups n=6-8). Cyclic G-2-AllylP was synthesised by the Department of Medicinal Chemistry and dissolved in normal saline before the treatment. On day 1 a single dose of cyclic G-2-AllylP was given centrally (20 ng/animal, i.c.v.) to the animals in groups 2 and 4; saline was administered to groups 1 and 3. The memory tests using Novel Object Recognition Test started either on day 3 (groups 1 and 2) or 24 (groups 3 and 4) after the treatment. On the completion of the NORT, the rats were killed with an overdose of sodium pentobarbital and were perfused transcardially with normal saline followed by 10% formalin. Tissues collected at day 7 in groups 1 and 2, and at day 28 from groups 3 and 4. The brains were kept in the same fixative for a minimum of 2 days before being processed using a standard paraffin embedding procedure. Briefly, small blocks (10×10×3 mm) of tissue were fixed for up to 24 hrs. The blocks were then infiltrated and embedded with paraffin and cut in ribbons and mounted on slides. Slides were then stored until immunostaining was commenced. Synaptogenesis in brain tissue was examined using immunohistochemical staining. […]

The test system of assay [1] is pre-synaptic vesicles in the hippocampus. The assay is described as follows: Pre-synaptic vesicle count by transmission electron microscopy, middle aged rats. In kind it is in vivo, Wistar male rats. As to conditions: CA1 and C3 subregions; 3 mg/kg/day x 7 days, s.c.; 21 days. How it is done: Four middle aged Wistar male rats (12 months) were divided into two groups: one vehicle-treated (n=2) and one cG-2-AllylP-treated (n=2). The rats were treated subcutaneously with 3 mg/kg/day of either saline or cG-2-AllylP for 7 days. On day 21 of the experiment the animals were sacrificed and the hippocampal tissue was harvested. Semi-thin sections of the tissue were fixed with OsO4 and embedded in resin. CA1 stratum oriens and CA3 sections were then sliced into ultra-thin, 80 nm slices and stained with uranyl acetate and lead citrate. Approximately 30 synapses per animal were analysed, synapse type classified and vesicle density was measured using AnalySIS®.
Transmission electron microscopy was used to count the total number of vesicles on the slides. The average density was calculated by measuring the total area (using AxioVision software) and using the number of vesicles. We followed the protocol in Yoshida et al. 97, Journal of Neurochemistry to calculate the vesicle density in a 200 nm×200 nm square apposing the post-synaptic density (PSD).

For assay [2], the system named is hippocampal LTP in MeCP2 deficient mice. The assay is described as follows: Hippocampal long-term potentiation (fEPSP slope) in MeCP2 deficient mice. In kind it is in vivo. As to conditions: MeCP2 deficient mice at 9 weeks; vs saline. The text has this:
MeCP2 deficient mice have been previously reported to suffer from functional and ultrastructural synaptic dysfunction, significant impairment of hippocampus-dependent memory and hippocampal long-term potentiation (LTP) (Moretti et al. The Journal of Neuroscience. 2006. 26(1):319-327). To test the effects of the cG-2-AllylP treatment on synaptic function in the RTT model we compare hippocampal LTP in both vehicle and cG-2-AllylP-treated animals at 9 weeks of age. To do so, we measure the slope of the fEPSP as a % of baseline potential in neurons in slices of hippocampus from MeCP2 deficient mice treated with either saline or cG-2-AllylP.

Another assay concerns hippocampal CA1 neurons. The assay is described as follows: Dendritic arborization, dendritic and spine length after Golgi staining, mecp2 knockout mice. In kind it is in vivo. How it is done: We assess the effects of cG-2-AllylP treatment on dendrites. Transgenic mecp2 knockout mice (n=15 to 20) are administered cG-2-AllylP intraperitoneally at a dose of 20 mg/kg once daily. Following sacrifice dendritic spine density, spine length and aborization are examined after Golgi staining after nine weeks, according to Table 5 below.
Dendritic length is assessed by distance from the soma of representative hippocampal CA1 neurons from 9 week old male mecp2 null mutant mice treated with either saline (3 neurons analysed from 3 separate mice, n=9) or cG-2-AllylP (20 mg/kg i.p. 1/day, from week 4; 3 neurons are analysed from 3 separate mice, n=9).

The test system of assay [3] is layer 5 pyramidal neurons in sections of motor cortex. The assay is described as follows: Golgi staining of cortical dendritic spines. In kind it is in vivo, mice. As to conditions: knockout neurons; P28. How it is done:
Samples (<1 cm) from P28 mice are fixed in 10% formalin and 3% potassium bichromate for 24 hours. Tissue is then transferred into 2% silver nitrate for 2 days in the dark at room temperature. Sections from these samples are then cut at 30 μm thickness into distilled water. Sections corresponding to motor cortex are mounted onto slides, air dried for 10 minutes, and then dehydrated through sequential rinses of 93% alcohol, 100% alcohol, and xylene, and then sealed with a coverslip. Images re acquired at 10× (whole cell) and 100× (spine imaging) using a Zeiss Pascal 3 Exciter confocal microscope.
We use Golgi staining to label neurons sparsely and distinctly, and applied high-resolution confocal imaging to measure dendritic spine density and morphology in the labelled cells, restricting analysis to layer 5 pyramidal neurons in sections of motor cortex from critical period mice (P28).
While low-magnification imaging clearly delineates the extent of the dendrites of the pyramidal cells we use higher magnifications to count synaptic contacts and determine the morphological class of each spine. We classify spines as either large and bulbous (“mushroom”, M), short and stubby (“stubby”, S), short and thin (“thin”, T) or filopodia (F).

The results in this text go back to patent US11197856B2, “Bicyclic compounds and methods for their use in treating autism” (priority 2013, dated 2021).

Take `C=CC[C@]12CCCN1C(=O)CNC2=O` [cG-2-AllylP, (8aS)-Allyl-hexahydropyrrolo[1,2-a]pyrazine-1,4-dione]: the “novelty recognition (NORT)” value with Aged rats is recorded as “trend to improve the novelty recognition”. Moreover, the “number of pre-synaptic vesicles” value in assay [1] was “increased”. The “slope of fEPSP (hippocampal LTP)” value in assay [2] is reported as “increases the slope of fESPS”. For the same molecule, the “dendritic length by distance from the soma” value in the assay with hippocampal CA1 neurons (hippocampal CA1 neurons, vs saline) is recorded as “produces longer dendrites over much of the range of distances from the somas”. In addition, the “dendritic arborization and dendritic spine length” value in the assay with hippocampal CA1 neurons (mecp2 knockout mice, 20 mg/kg i.p. once daily, nine weeks) was “improves dendritic arborization and increases dendritic spine length”. Besides, the “density of spines per unit branch” value in assay [3] is on record as “largely ameliorated in the knockout with treatment”.
